Measured values reported in paper PMC8593021, “Biophysical and functional characterization of the human TAS1R2 sweet taste receptor overexpressed in a HEK293S inducible cell line” (Scientific Reports, 2021).
Values belong to the molecule of their own block, whether it stands above or below them.

Columns and labels:
hTAS1R3 = molecular target: T1, hTAS1R3 (Homo sapiens, UniProt Q7RTX0); experiment: Calcium assay (GCaMP6S) in HEK293T-Gα16gust44 cells transfected with hTAS1R3-FLAG alone; assay type: cell-based; details: HEK293T-Gα16gust44 cells transiently transfected with GCaMP6S and hTAS1R3-FLAG alone
T1 construct: expressed in transfected cells; host or cells: HEK293T cells stably expressing Gα16gust44, transiently transfected
T1 sequence (Q7RTX0 21-852): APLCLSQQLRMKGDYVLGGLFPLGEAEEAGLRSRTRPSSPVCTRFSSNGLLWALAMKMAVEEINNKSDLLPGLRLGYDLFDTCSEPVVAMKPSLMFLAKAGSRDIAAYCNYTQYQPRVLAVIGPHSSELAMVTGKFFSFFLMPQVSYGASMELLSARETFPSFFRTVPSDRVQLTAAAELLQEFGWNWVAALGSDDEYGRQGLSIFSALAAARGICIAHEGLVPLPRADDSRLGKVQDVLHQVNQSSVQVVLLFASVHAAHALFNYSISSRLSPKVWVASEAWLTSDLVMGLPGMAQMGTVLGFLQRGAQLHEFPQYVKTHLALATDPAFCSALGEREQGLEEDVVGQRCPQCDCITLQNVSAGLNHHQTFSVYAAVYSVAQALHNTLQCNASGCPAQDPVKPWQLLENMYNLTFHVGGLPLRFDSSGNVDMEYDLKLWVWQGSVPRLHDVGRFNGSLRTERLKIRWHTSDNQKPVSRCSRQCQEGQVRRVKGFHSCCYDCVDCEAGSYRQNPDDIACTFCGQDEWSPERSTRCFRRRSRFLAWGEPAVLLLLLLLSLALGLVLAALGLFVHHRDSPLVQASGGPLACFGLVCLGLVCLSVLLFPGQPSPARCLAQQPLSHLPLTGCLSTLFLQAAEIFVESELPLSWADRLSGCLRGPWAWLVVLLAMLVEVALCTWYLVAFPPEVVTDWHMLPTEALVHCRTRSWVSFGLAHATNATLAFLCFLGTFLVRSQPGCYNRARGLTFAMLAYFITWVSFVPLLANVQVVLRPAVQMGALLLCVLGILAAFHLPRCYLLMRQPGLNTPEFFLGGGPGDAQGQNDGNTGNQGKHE
Excerpt: (§1) We used a calcium imaging assay to establish dose–response curves for the sweet taste receptor hTAS1R2/hTAS1R3 and determine EC50 values for the sweet stimuli previously tested in spectrofluorimetric experiments. We cloned the cDNAs coding hTAS1R2 and hTAS1R3 subunits into pcDNA6 and pcDNA4 expression plasmids, respectively, and we added FLAG tag to C-terminus of each construct to measure protein expression level by immunocytochemistry as described previously. HEK293T cells stably transfected with Gα16gust44 were seeded at a density of 0.35 × 10^6 cells per well into 96-well black walled, clear bottom microtiter plates (Falcon) in high-glucose DMEM supplemented with 2 mM GlutaMAX, 10% dialyzed foetal bovine serum, penicillin/streptomycin and G418 (400 µg/mL) at 37 °C and 6.3% CO2, in a humidified atmosphere. After 48 h, the cells were transiently transfected with each TAS1R subunit (60 ng/well for each plasmid) and plasmid pGP-CMV-GCaMP6S (Addgene #40753, 50 ng per well) coding for a green fluorescent protein-based calcium indicator, using Fugene HD (0.4 µL/well). After a further 24 h incubation, the cells were washed twice with buffer C1 and then stimulated with sweet tasting compounds. After excitation at 488 nm, calcium responses were recorded at 510 nm using a Molecular Devices FlexStation 3 system. Acquisition was made simultaneously from 8 wells corresponding to the range of taste solutions. We averaged the responses of 18 wells receiving the same stimulus one three independent experiments. We subtracted the mean calcium traces of mock-transfected cells stimulated with the same concentration of stimulus. Plots of the fluorescence variation amplitude versus concentration were fitted by four-parameter logistic nonlinear regression allowing us to calculate the EC50 values of activation.

hTAS1R2/hTAS1R3 = molecular target: T2, hTAS1R2/hTAS1R3 (Homo sapiens, UniProt Q7RTX0+Q8TE23); experiment: Calcium assay (GCaMP6S) in HEK293T-Gα16gust44 cells transfected with hTAS1R2-FLAG and hTAS1R3-FLAG; assay type: cell-based; details: HEK293T-Gα16gust44 cells transiently transfected with GCaMP6S
T2 construct: expressed in transfected cells; host or cells: HEK293T cells stably expressing Gα16gust44, transiently transfected
T2 sequence (Q8TE23 20-839): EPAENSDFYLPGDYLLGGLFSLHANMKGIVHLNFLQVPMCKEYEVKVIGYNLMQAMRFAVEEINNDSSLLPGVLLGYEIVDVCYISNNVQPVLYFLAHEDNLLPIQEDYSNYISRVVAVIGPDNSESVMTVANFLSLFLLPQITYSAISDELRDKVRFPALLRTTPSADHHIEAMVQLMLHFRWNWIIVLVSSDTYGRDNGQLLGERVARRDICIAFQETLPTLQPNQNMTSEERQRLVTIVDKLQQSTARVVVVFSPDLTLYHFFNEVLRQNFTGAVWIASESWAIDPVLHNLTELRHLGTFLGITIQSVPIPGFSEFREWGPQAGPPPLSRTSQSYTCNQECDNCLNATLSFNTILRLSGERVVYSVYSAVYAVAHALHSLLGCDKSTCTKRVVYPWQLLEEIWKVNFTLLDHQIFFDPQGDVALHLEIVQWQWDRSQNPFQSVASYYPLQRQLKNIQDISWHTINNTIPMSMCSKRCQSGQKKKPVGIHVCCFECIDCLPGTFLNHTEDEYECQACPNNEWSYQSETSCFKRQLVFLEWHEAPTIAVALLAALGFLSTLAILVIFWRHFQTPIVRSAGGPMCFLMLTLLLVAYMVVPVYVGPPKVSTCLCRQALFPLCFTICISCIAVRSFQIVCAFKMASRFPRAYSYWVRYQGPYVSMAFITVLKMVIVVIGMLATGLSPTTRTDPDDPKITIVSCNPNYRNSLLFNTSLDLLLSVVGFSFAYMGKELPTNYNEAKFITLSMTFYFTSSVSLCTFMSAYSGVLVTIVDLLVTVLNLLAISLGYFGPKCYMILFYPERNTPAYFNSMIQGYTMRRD
T2 sequence (Q7RTX0 21-852): T1 sequence (Q7RTX0 21-852)
Excerpt: as §1

hTAS1R2 [1] = molecular target: T3, hTAS1R2 (Homo sapiens, UniProt Q8TE23); experiment: Intrinsic tryptophan fluorescence ligand binding to purified detergent-solubilized hTAS1R2; design: made in house; details: purified FLAG-tagged hTAS1R2 0.10 µM in PBS, 0.1% LMNG, 20 °C; λex 280 nm, λem 340 nm
T3 sequence (Q8TE23 20-839): T2 sequence (Q8TE23 20-839)
Method: Intrinsic fluorescence spectra were recorded with a Cary Eclipse spectrofluorimeter (Varian Instruments, Les Ulis, France) equipped with a Peltier temperature control unit. The temperature was maintained at 20 °C. FLAG-tagged hTAS1R2 protein (0.10 µM in PBS, 0.1% LMNG buffer) was excited at 280 nm, and the emission spectra were recorded from 300 to 400 nm, with a 10 nm bandwidth for both excitation and emission in the presence and absence of ligands. The sweetener solutions were freshly prepared in PBS-0.1% LMNG buffer. Successive aliquots of ligand solutions were added to 400 µL of the FLAG-tagged hTAS1R2 solution. […] The fluorescence measurements were corrected for bleaching and nonspecific buffer quenching. The dissociation constants (Kd) were calculated from a plot of the fluorescence intensity measured at the maximum emission wavelength (340 nm) versus the concentration of total ligand obtained with a standard nonlinear regression method using SigmaPlot software (Systat Software Inc., San Jose, CA, USA). The reported Kd values are the average of triplicate measurements performed on at least three independently purified protein samples.

hTAS1R2 [2] = molecular target: T3, hTAS1R2; experiment: Calcium assay (GCaMP6S) in HEK293T-Gα16gust44 cells transfected with hTAS1R2-FLAG alone; assay type: cell-based; details: HEK293T-Gα16gust44 cells transiently transfected with GCaMP6S and hTAS1R2-FLAG alone
Excerpt: as §1, with “After a further 24 h incubation, the cells were washed twice with buffer C1 and then stimulated with sweet tasting compounds.” left out, “Acquisition was made simultaneously from 8 wells corresponding to the range of taste solutions. We averaged the responses of 18 wells receiving the same stimulus one three independent experiments. We subtracted the mean calcium traces of mock-transfected cells stimulated with the same concentration of stimulus.” left out

[3] = molecular target: the molecule itself; experiment: SEC-MALS; pooled gel filtration peak 4 (fractions 14-16) of FLAG-tagged hTAS1R2; Superdex 200 Increase 3.2/300, PBS with 0.1% LMNG, pH 7.3, 0.1 mL/min; MALS, RI and UV (280 nm) detectors; protein-detergent complexes

EC50 hTAS1R3 (hTAS1R3): n.r. | EC50 (hTAS1R2/hTAS1R3): 0.9 ± 0.09 µM | Kd (hTAS1R2 [1]): 2.78 ± 0.69 µM
Molecule: COC(=O)[C@H](Cc1ccccc1)NC(=O)[C@H](CC(=O)O)NCCC(C)(C)C [Neotame, neotame]

EC50 hTAS1R3 (hTAS1R3): n.r. | EC50 (hTAS1R2/hTAS1R3): 36 ± 2 µM | Kd (hTAS1R2 [1]): 29 ± 8 µM
Molecule: OC[C@H]1O[C@H](O[C@]2(CCl)O[C@H](CCl)[C@@H](O)[C@@H]2O)[C@H](O)[C@@H](O)[C@H]1Cl [Sucralose, sucralose]

EC50 hTAS1R3 (hTAS1R3): n.r. | EC50 (hTAS1R2/hTAS1R3): 2.54 ± 0.48 µM | EC50 (hTAS1R2 [2]): 61 ± 13 µM | Kd (hTAS1R2 [1]): 373 ± 110 µM
Molecule: C=C(C)C1CC=C(/C=N/O)CC1 (stereo in doubt) [Perillartine, perillartine]

EC50 hTAS1R3 (hTAS1R3): n.r. | EC50 (hTAS1R2/hTAS1R3): 213 ± 59 µM | Kd (hTAS1R2 [1]): 164 ± 53 µM
Molecule: CC1=CC(=O)NS(=O)(=O)O1 [Acesulfame-K, acesulfame-K]

Molecule: O=S(=O)(O)NC1CCCCC1 [Cyclamate-Na, cyclamate-Na]
EC50 hTAS1R3 (hTAS1R3): n.r. | EC50 (hTAS1R2/hTAS1R3): 767 ± 83 µM

B1: FLAG-tagged human TAS1R2 (taste receptor type 1, member 2) (receptor, UniProt Q8TE23 20-839, looked up)
chain: T2 sequence (Q8TE23 20-839)
notes: human TAS1R2 (taste receptor type 1, member 2), UniProtKB Q8TE23, full-length protein from a codon-optimised synthetic gene; the purified protein is still detected and captured by anti-FLAG M2; Theoretical mass of FLAG-tagged hTAS1R2 printed as 96.2 kDa; In LMNG detergent; also called hTAS1R2; FLAG-hTAS1R2; not shown: FLAG, N-terminal, kept
stoichiometry N [3]: 2
